SMILES strings stand for the structures. A value given as a limit tells only on which side of the number the result lay.

The values below come from US12384776B2, “Compounds and uses thereof” (Foghorn Therapeutics Inc., priority 2019, dated 2025).

Assay [1] concerns non-synovial control cancer cell lines (RD, HCT116, and Calu6). Nature of the assay: Crystal violet growth assay in non-synovial control cancer cell lines, Example 4. The assay is classed as cell-based. As to conditions: day 14. The procedure: (§1) Procedure: Cells were seeded into 6-well or 12-well plates and were treated daily with a BRD9 degrader (Compound 1), a bromo-domain BRD9 binder (Compound 2), E3 ligase binder (lenalidomide), DMSO, or staurosporin (positive control for cell killing), at indicated concentrations. The number of cells was optimized for each cell line. Growth media was refreshed every 5 days. By day 14, medium was removed, cells were washed with PBS, and stained using 500 μL of 0.005% (w/v) crystal violet solution in 25% (v/v) methanol for at least 1 hour at room temperature. Subsequently plates were scanned on an Odyssey CLx Imaging system.

Assay [2] relates to synovial sarcoma cell lines (SYO1, Yamato, HS-SY-II, and ASKA). Nature of the assay: Growth of synovial sarcoma cell lines (IncuCyte confluency, crystal violet, colony imaging), Example 3. The format is cell-based. How it is done:
(§2) Cells were treated with DMSO or the BRD9 degrader, Compound 1, at indicated concentrations, and proliferation was monitored from day 7 to day 14 by measuring confluency over time using an IncuCyte live cell analysis system (FIG. 5). Growth medium and compounds were refreshed every 3-4 days.
(§3) Cells were seeded into 12-well plates and treated with DMSO, 1 μM BRD9 inhibitor, Compound 2 (also known as BI-7273, see Martin et al, J Med Chem. 59(10):4462-4475 (2016); see structure of compound 2 below), or 1 μM BRD9 degrader, Compound 1.
(§4) The number of cells was optimized for each cell line. Growth medium and compounds were refreshed every 3-5 days. SYO1, Yamato, A549, 293T and HS-SY-II cells were fixed and stained at day 11. ASKA cells were fixed and stained at day 23. Staining was done by incubation with crystal violet solution (0.5 g Crystal Violet, 27 ml 37% Formaldehyde, 100 mL 10×PBS, 10 mL Methanol, 863 dH20 to 1 L) for 30 min followed by 3× washes with water and drying the plates for at least 24 h at room temperature. Subsequently plates were scanned on an Odyssey CLx Imaging system (FIG. 6).
(§5) Cells were seeded into 96-well ultra low cluster plate (Costar, #7007) in 200 μL complete media and treated at day 2 with DMSO, Staurosporin, or BRD9 degarder, Compound 1, at indicated doses (FIG. 3C). Media and compounds were changed every 5 d and cell colonies were imaged at day 14.

Assay [3] deals with non-synovial control cancer cell lines (293T, A549, G401). The assay can be described thus: Growth of non-synovial control cancer cell lines, Example 3. The assay is classed as cell-based. The procedure: as §2, §3, §4, §5
In assay [4] the test system is synovial sarcoma cell lines (SYO1, HS-SY-II, and ASKA). Nature of the assay: Crystal violet growth assay in synovial sarcoma cell lines, Example 4. The format is cell-based. As to conditions: synovial sarcoma cell lines SYO1, HS-SY-II, ASKA; day 14. How it is done:
as §1

A further assay has as its target BRD9 bromodomain (Homo sapiens (Human), UniProt Q9H8M2). The assay can be described thus: BRD9 bromodomain TR-FRET competition binding assay. How it is done: Procedure: His-Flag-BRD9 (P133-K239; Swiss Prot Q9H8M2; SEQ ID NO:1 mgsshhhhhhenlyfq/gdykddddkgslevlfqg/[…] […]) was cloned, expressed, purified, and then treated with TEV protease. Cleaved His tag was removed by purification. The binding of a biotinylated small molecule ligand of BRD9 was assessed via the LANCE® TR-FRET platform (PerkinElmer), and the compounds were assayed for inhibitory activity against this interaction.
Results: A mixture of biotinylated-ligand and SureLight™ Allophycocyanin-Streptavidin (APC-SA, PerkinElmer AD0201) in 50 mM HEPES (pH 7.4), 50 mM NaCl, 1 mM TCEP (pH 7), 0.01% (v/v) Tween-20, 0.01% (w/v) bovine serum albumin was added to a white 384-well PerkinElmer Proxiplate Plus plate. DMSO or 3-fold serially diluted compounds were then added to the Proxiplate followed by addition of Flag-BRD9. After a 10-minute incubation at room temperature, Eu—W1024 anti-FLAG (PerkinElmer, AD0273) was added. The final reaction mixture that contained 3.75 nM biotinylated ligand, 3 nM Flag-BRD9, 7.5 nM SureLight™ Allophycocyanin-Streptavidin, and 0.2 nM Eu—W1024 anti-FLAG was incubated at room temperature for 90 minutes.
The plates were then read on a PerkinElmer Envision plate reader to determine the ratio of emission at 665 nm over 615 nm. […]

The target of assay [5] is Nanoluciferase-BRD9 fusion protein (3×FLAG-NLuc-BRD9) in SYO-1 cells (Homo sapiens (Human), UniProt Q9H8M2). The assay can be described thus: SYO1 BRD9 NanoLuc degradation assay. The format is cell-based. To be noted: SYO-1 cells, 6 hours, Table 6A. Summed up: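 Stable SYO-1 line expressing 3×FLAG-NLuc-BRD9, treated with 10-point 3-fold dilutions (top 1 μM final) for 6 hours. Nanoluciferase luminescence read with Nano-Glo reagent. % inhibition relative to DMSO (high control) and 1 μM reference BRD9 degrader (low control).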
Chain of Nanoluciferase-BRD9 fusion protein (3×FLAG-NLuc-BRD9) in SYO-1 cells (Q9H8M2 whole entry, the tested form may be a part): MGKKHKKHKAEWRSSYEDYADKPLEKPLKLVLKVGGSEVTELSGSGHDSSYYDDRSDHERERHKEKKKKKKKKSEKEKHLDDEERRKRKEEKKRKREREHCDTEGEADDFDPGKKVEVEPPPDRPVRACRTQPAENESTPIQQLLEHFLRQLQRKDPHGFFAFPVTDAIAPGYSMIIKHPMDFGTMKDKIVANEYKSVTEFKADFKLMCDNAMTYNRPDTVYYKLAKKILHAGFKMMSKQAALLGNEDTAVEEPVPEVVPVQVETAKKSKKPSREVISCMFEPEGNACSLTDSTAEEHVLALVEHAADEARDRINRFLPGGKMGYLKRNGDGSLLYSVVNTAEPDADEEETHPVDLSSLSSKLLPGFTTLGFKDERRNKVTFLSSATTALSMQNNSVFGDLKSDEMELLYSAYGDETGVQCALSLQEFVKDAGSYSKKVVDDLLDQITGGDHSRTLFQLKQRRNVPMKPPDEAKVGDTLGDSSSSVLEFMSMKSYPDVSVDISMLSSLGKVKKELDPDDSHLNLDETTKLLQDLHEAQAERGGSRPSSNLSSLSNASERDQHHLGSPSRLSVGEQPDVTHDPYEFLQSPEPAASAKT

Chain of BRD9 bromodomain (Q9H8M2 133-239): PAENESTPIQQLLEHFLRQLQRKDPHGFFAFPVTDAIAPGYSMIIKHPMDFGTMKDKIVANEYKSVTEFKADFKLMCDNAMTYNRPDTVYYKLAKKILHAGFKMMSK

Regarding `COc1cc(-c2cn(C)c(=O)c3cnccc23)cc(OC)c1CN(C)C` [Compound 2], the “inhibition of the growth of the cells” value was “did not result in inhibition of the growth” in assay [1], “inhibition of the growth of the cells” in assay [2], “does not result in inhibition of the growth” in assay [3] and “inhibition of the growth of the cells” in assay [4].

Consider `COc1cc(-c2cn(C)c(=O)c3c2CN(C(=O)NCCOCCOCCNc2cccc4c2C(=O)N(C2CCC(=O)NC2=O)C4=O)CC3)cc(OC)c1CN(C)C` (stereo not drawn) [Compound D23, 8-[4-[(dimethylamino)methyl]-3,5-dimethoxyphenyl]-N-[2-[2-(2-[[2-(2,6-dioxopiperidin-3-yl)-1,3-dioxoisoindol-4-yl]amino]ethoxy)ethoxy]ethyl]-6-methyl-5-oxo-3,4-dihydro-1H-2,6-naphthyridine-2-carboxamide formic acid], for which the IC50 at BRD9 bromodomain is more than 100 nM; in assay [5], more than 1000 nM.

Turning to `CNC(=O)N1CCc2c(c(-c3cc(OC)c(CN(C)CC(=O)NCCOCCOc4cccc5c4C(=O)N(C4CCC(=O)NC4=O)C5=O)c(OC)c3)cn(C)c2=O)C1` (stereo not drawn) [Compound D24, 8-(4-(((2-((2-(2-((2-(2,6-dioxopiperidin-3-yl)-1,3-dioxoisoindolin-4-yl)oxy)ethoxy)ethyl)amino)-2-oxoethyl)(methyl)amino)methyl)-3,5-dimethoxyphenyl)-N,6-dimethyl-5-oxo-3,4,5,6-tetrahydro-2,6-naphthyridine-2 (1H)-carboxamide], the IC50 was more than 100 nM at BRD9 bromodomain and more than 1000 nM in assay [5].

In the case of `CNC(=O)N1CCc2c(-c3cc(OC)c(CN4CCC(CCN5CCN(c6ccc7c(c6)C(=O)N(C6CCC(=O)NC6=O)C7=O)CC5)CC4)c(OC)c3)cn(C)c(=O)c2C1` (stereo not drawn) [Compound D28, 5-(4-[[4-(2-[4-[2-(2,6-dioxopiperidin-3-yl)-1,3-dioxoisoindol-5-yl]piperazin-1-yl]ethyl)piperidin-1-yl]methyl]-3,5-dimethoxyphenyl)-N,7-dimethyl-8-oxo-3,4-dihydro-1H-2,7-naphthyridine-2-carboxamide formic acid], the IC50 (at BRD9 bromodomain; in assay [5]) was less than 10 nM throughout.

Regarding `COc1cc(-c2cn(C)c(=O)c3c2CCN(C(=O)NCCCCCCCCNc2cccc4c2CN(C2CCC(=O)NC2=O)C4=O)C3)cc(OC)c1CN(C)C` (stereo not drawn) [Compound D29, 5-(4-((dimethylamino)methyl)-3,5-dimethoxyphenyl)-N-(8-((2-(2,6-dioxopiperidin-3-yl)-1-oxoisoindolin-4-yl)amino)octyl)-7-methyl-8-oxo-3,4,7,8-tetrahydro-2,7-naphthyridine-2 (1H)-carboxamide formic acid], the half-inhibitory concentration (IC50) (on BRD9 bromodomain; in assay [5]) was less than 10 nM each time.

As to `COc1cc(-c2cn(C)c(=O)c3c2CCN(C(=O)NCCN(C)CCOCCOc2cccc4c2C(=O)N(C2CCC(=O)NC2=O)C4=O)C3)cc(OC)c1CN(C)C` (stereo not drawn) [Compound D30, 5-[4-[(dimethylamino)methyl]-3,5-dimethoxyphenyl]-N-(2-[[2-(2-[[2-(2,6-dioxopiperidin-3-yl)-1,3-dioxoisoindol-4-yl]oxy]ethoxy)ethyl](methyl)amino]ethyl)-7-methyl-8-oxo-3,4-dihydro-1H-2,7-naphthyridine-2-carboxamide formic acid], the figures for the half-inhibitory concentration (IC50) (on BRD9 bromodomain; in assay [5]) were more than 100 nM and more than 1000 nM, respectively.

Take `CNC(=O)N1CCc2c(-c3cc(OC)c(CN4CCC5(CC4)CN(C(=O)CCCCOc4ccc6c(c4)C(=O)N(C4CCC(=O)NC4=O)C6=O)CCO5)c(OC)c3)cn(C)c(=O)c2C1` (stereo not drawn) [Compound D31, 5-(4-((4-(5-((2-(2,6-dioxopiperidin-3-yl)-1,3-dioxoisoindolin-5-yl)oxy)pentanoyl)-1-oxa-4,9-diazaspiro[5.5]undecan-9-yl)methyl)-3,5-dimethoxyphenyl)-N,7-dimethyl-8-oxo-3,4,7,8-tetrahydro-2,7-naphthyridine-2 (1H)-carboxamide formic acid]: the half-maximal inhibitory concentration (IC50) at BRD9 bromodomain was less than 10 nM; in assay [5], more than 10 nM.

As for `COc1cc(-c2cn(C)c(=O)c3c2CCN(C(=O)NCCOCCNc2ccc4c(c2)C(=O)N(C2CCC(=O)NC2=O)C4=O)C3)c(OC)cc1CN(C)C` (stereo not drawn) [Compound D32, 5-[4-[(dimethylamino)methyl]-2,5-dimethoxyphenyl]-N-[2-(2-[[2-(2,6-dioxopiperidin-3-yl)-1,3-dioxoisoindol-5-yl]amino]ethoxy)ethyl]-7-methyl-8-oxo-3,4-dihydro-1H-2,7-naphthyridine-2-carboxamide formic acid], the IC50 (on BRD9 bromodomain; in assay [5]) was more than 100 nM in each case.

Take `COc1cc(-c2cn(C)c(=O)c3c2CN(C(=O)N(C)C)CC3)cc(OC)c1CN(C)CCOCCN1CCN(c2ccc3c(c2)C(=O)N(C2CCC(=O)NC2=O)C3=O)CC1` (stereo not drawn) [Compound D33, 8-(4-(((2-(2-(4-(2-(2,6-dioxopiperidin-3-yl)-1,3-dioxoisoindolin-5-yl)piperazin-1-yl)ethoxy)ethyl)(methyl)amino)methyl)-3,5-dimethoxyphenyl)-N,N,6-trimethyl-5-oxo-3,4,5,6-tetrahydro-2,6-naphthyridine-2 (1H)-carboxamide formic acid]: the figures for the IC50 (at BRD9 bromodomain; in assay [5]) were more than 10 nM and more than 1000 nM, respectively.

Take `COc1cc(-c2cn(C)c(=O)c3c2CCN(C(=O)NCCCCCCCC(=O)N[C@H](C(=O)N2C[C@H](O)C[C@H]2C(=O)NCc2ccc(-c4scnc4C)cc2)C(C)(C)C)C3)cc(OC)c1CN(C)C` [Compound D37, (2S,4R)-1-[(2S)-2-[8-(5-[4-[(dimethylamino)methyl]-3,5-dimethoxyphenyl]-7-methyl-8-oxo-3,4-dihydro-1H-2,7-naphthyridine-2-carbonylamino)octanamido]-3,3-dimethylbutanoyl]-4-hydroxy-N-[[4-(4-methyl-1,3-thiazol-5-yl)phenyl]methyl]pyrrolidine-2-carboxamide formic acid]: the IC50 is less than 10 nM at BRD9 bromodomain and more than 10 nM in assay [5].

Regarding `COc1cc(-c2cn(C)c(=O)c3c2CCN(C(=O)NCCCCCCCCCC(=O)N[C@H](C(=O)N2C[C@H](O)C[C@H]2C(=O)NCc2ccc(-c4scnc4C)cc2)C(C)(C)C)C3)cc(OC)c1CN(C)C` [Compound D38, (2S,4R)-1-[(2S)-2-[10-(5-[4-[(dimethylamino)methyl]-3,5-dimethoxyphenyl]-7-methyl-8-oxo-3,4-dihydro-1H-2,7-naphthyridine-2-carbonylamino)decanamido]-3,3-dimethylbutanoyl]-4-hydroxy-N-[[4-(4-methyl-1,3-thiazol-5-yl)phenyl]methyl]pyrrolidine-2-carboxamide], the results for the IC50 (at BRD9 bromodomain; in assay [5]) were less than 10 nM and more than 10 nM, respectively.
